In patent publication US7906491B2 (Univisitair Medisch Centrum Utrecht, priority 2002, dated 2011):

Experiments:
[1] = target: T1, Epac (Homo sapiens, UniProt O95398); experiment: Relative affinity for Epac (cAMP = 1), in vitro; type: binding; details: relative to cAMP = 1
T1 sequence (O95398 1-923): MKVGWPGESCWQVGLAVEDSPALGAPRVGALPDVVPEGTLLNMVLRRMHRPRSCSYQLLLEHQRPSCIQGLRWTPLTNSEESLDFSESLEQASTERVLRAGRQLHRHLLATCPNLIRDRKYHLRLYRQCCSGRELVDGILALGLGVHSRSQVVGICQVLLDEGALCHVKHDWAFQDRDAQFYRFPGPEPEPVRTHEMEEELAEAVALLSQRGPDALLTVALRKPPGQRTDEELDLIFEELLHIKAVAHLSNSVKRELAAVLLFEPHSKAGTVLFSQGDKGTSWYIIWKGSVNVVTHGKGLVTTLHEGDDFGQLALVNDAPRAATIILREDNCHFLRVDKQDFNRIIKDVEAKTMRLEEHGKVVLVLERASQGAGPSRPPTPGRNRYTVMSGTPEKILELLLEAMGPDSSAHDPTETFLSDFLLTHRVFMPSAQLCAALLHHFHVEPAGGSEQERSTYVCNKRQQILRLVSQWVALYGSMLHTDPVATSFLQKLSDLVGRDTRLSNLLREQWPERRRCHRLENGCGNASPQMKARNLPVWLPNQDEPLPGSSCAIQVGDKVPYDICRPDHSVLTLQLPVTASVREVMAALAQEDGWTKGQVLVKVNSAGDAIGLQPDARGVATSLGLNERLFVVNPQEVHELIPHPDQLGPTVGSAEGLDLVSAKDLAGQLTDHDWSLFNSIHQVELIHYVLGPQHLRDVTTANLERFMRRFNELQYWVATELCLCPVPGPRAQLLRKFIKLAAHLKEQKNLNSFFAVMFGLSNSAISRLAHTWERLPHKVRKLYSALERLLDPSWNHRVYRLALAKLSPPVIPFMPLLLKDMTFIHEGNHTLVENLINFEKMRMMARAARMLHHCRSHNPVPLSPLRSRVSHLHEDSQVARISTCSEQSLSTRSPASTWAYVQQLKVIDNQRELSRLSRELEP

[2] = target: T2, Epac1-ΔDEP1 (Homo sapiens, UniProt O95398); experiment: In vitro GEF assay: Epac activity in the exchange reaction towards Rap (mantGDP-loaded Rap1b); type: biochemical; details: in vitro in the exchange reaction towards Rap; also: key: +++: activity comparible to I-007; ++: activity between I-007 and cAMP; +: activity comparible to cAMP; ±: activity less than cAMP
T2 sequence (O95398 191-923 limits assumed): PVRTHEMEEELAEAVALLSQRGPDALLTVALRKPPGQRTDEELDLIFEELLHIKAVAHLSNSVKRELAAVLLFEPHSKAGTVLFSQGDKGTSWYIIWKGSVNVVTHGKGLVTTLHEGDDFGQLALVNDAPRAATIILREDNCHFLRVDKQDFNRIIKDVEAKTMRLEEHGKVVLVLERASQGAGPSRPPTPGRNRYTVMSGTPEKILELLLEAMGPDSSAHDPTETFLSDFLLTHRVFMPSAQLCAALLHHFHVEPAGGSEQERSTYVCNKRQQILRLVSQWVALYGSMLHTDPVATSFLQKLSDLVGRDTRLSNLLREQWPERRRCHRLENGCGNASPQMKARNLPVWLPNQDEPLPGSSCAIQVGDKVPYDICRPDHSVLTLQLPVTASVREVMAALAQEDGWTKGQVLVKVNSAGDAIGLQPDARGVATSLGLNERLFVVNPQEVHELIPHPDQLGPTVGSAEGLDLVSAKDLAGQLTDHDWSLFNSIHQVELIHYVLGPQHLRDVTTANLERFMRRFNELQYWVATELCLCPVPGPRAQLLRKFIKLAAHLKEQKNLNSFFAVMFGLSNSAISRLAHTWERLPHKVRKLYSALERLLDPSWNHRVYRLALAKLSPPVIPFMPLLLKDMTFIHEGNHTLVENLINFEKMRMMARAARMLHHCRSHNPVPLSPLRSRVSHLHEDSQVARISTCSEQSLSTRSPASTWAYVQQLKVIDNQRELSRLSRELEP
Description: In vitro GEF assays were performed as described (3,16). […] Buffer conditions were 50 mM Tris pH7.4, 150 mM NaCl, 5% glycerol, 5 mM DTE, 60 μM GTP. Reactions were carried out in 96-well plates and measured in a Cary Eclipse from Varian Inc., using the manufacturers software.

[3] = test system: PKAI; experiment: Relative affinity for PKAI (cAMP = 1), in vitro; type: binding; details: relative to cAMP = 1
[4] = test system: PKAII; experiment: Relative affinity for PKAII (cAMP = 1), in vitro; type: binding; details: relative to cAMP = 1

Row | Compound | Relative affinity CAMP = 1 Epac [1] | Relative activity of Epac* [2] | Relative affinity CAMP = 1 PKAI [3] | Relative affinity CAMP = 1 PKAII [4]
1 | 2′-O-ethyladenosine-3′,5′-cyclic monophosphate [Compound I-008] | 0.05 | + | 0.0043 | –
2 | 2′-O-isobutyladenosine-3′,5′-cyclic monophosphate [Compound I-011] | 0.017 | ± | 0.0009 | –
3 | 2′-O-methyladenosine-3′,5′-cyclic monophosphate [Compound I-005] | 0.12 | – | 0.005 | 0.005
4 | 2′-O-n-butyladenosine-3′,5′-cyclic monophosphate [Compound I-010] | 0.03 | + | 0.0008 | –
5 | 2′-O-propyladenosine-3′,5′-cyclic monophosphate [Compound I-009] | 0.03 | + | 0.001 | –
6 | 2′-deoxyadenosine-3′,5′-cyclic monophosphate [Compound I-001] | 0.0025 | + | 0.00013 | 0.000088
7 | 8-(2,3,5,6-tetrafluoro-phenylthio)-2′-O-methyladenosine-3′,5′-cyclic monophosphate [Compound I-124] | 4.7 | ++ | – | –
8 | 8-(2,4-dichloro-phenylthio)-2′-O-methyladenosine-3′,5′-cyclic monophosphate [Compound I-126] | 3.1 | ++ | – | –
9 | 8-(2-amino-ethylthio)-2′-O-methyladenosine-3′,5′-cyclic monophosphate [Compound I-118] | 0.34 | ± | – | –
10 | 8-(2-hydroxy-ethylthio)-2′-O-methyladenosine-3′,5′-cyclic monophosphate [Compound I-116] | 1.2 | + | – | –
11 | 8-(3-methoxy-phenylthio)-2′-O-methyladenosine-3′,5′-cyclic monophosphate [Compound I-122] | 2 | + | – | –
12 | 8-(4-Chloro-phenylthio)-inosine-3′,5′-cyclic monophosphate [Compound I-139] | – | + | – | –
13 | 8-(4-chloro-phenylthio)-2′-(N,N-dimethyl)-carbamoyl-adenosine-3′,5′-cyclic monophosphate [Compound I-127] | <0.002 | – | – | –
14 | 8-(4-chloro-phenylthio)-2′-O-methyladenosine-3′,5′-cyclic monophosphorothioate, Rp-isomer [Compound I-130] | 0.06 | ± | – | –
15 | 8-(4-chloro-phenylthio)-2′-O-methyladenosine-3′,5′-cyclic monophosphorothioate, Sp-isomer [Compound I-134] | – | + | – | –
16 | 8-(4-chloro-phenylthio)-2′-deoxyadenosine-3′,5′-cyclic monophosphorothioate, Rp-isomer [Compound I-137] | – | + | – | –
17 | 8-(4-chloro-phenylthio)-2′-deoxyadenosine-3′,5′-cyclic monophosphorothioate, Sp-isomer [Compound I-138] | – | + | – | –

Row | Compound | Relative affinity CAMP = 1 Epac [1] | Relative activity of Epac* [2] | Relative affinity CAMP = 1 PKAI [3] | Relative affinity CAMP = 1 PKAII [4]
18 | 8-(4-hydroxy-phenylthio)-2′-O-methyladenosine-3′,5′-cyclic monophosphate [Compound I-125] | 6.4 | +++ | – | –
19 | 8-(4-isopropyl-phenylthio)-2′-O-methyladenosine-3′,5′-cyclic monophosphate [Compound I-123] | 4.8 | ++ | – | –
20 | 8-(4-methyl-phenylthio)-2′-O-methyladenosine-3′,5′-cyclic monophosphate [Compound I-121] | 5.1 | +++ | – | –
21 | 8-(benzimidazolyl-2-thio)-2′-O-methyladenosine-3′,5′-cyclic monophosphate [Compound I-115] | 0.09 | + | – | –
22 | 8-(benzothiazolyl-2-thio)-2′-O-methyladenosine-3′,5′-cyclic monophosphate [Compound I-120] | 0.17 | + | – | –
23 | 8-(pyridinyl-2-thio)-2′-O-methyladenosine-3′,5′-cyclic monophosphate [Compound I-119] | 0.8 | ++ | – | –
24 | 8-benzyloxy-2′-O-methyladenosine-3′,5′-cyclic monophosphate [Compound I-132] | 0.18 | + | – | –
25 | 8-bromo-2′-O-methyladenosine-3′,5′-cyclic monophosphorothioate, Rp-isomer [Compound I-129] | 0.05 | ± | – | –
26 | 8-bromo-2′-O-methyladenosine-3′,5′-cyclic monophosphorothioate, Sp-isomer [Compound I-133] | – | + | – | –
27 | 8-bromo-2′-deoxyadenosine-3′,5′-cyclic monophosphorothioate, Rp-isomer [Compound I-135] | – | + | – | –
28 | 8-chloro-2′-O-methyladenosine-3′,5′-cyclic monophosphate [Compound I-141] | 0.92 | – | 0.012 | 0.0002
29 | 8-cyclohexylamino-2′-deoxyadenosine-3′,5′-cyclic monophosphate [Compound I-140] | – | + | – | –
30 | 8-methoxy-2′-O-methyladenosine-3′,5′-cyclic monophosphate [Compound I-131] | 0.36 | + | – | –
31 | 8-phenylethylamino-2′-O-methyladenosine-3′,5′-cyclic monophosphate [Compound I-111] | 0.08 | ± | – | –
32 | O=[P@]1(O)OC[C@H]2O[C@@H](n3c(Sc4ccc(Cl)cc4)nc4c(Nc5ccccc5)ncnc43)C[C@@H]2O1 [Compound I-004, 8-(4-chloro-phenylthio)-N^6-phenyl-2′-deoxyadenosine-3′,5′-cyclic monophosphate] | 0.5 | – | 0.03 | 0.26
33 | CCSc1nc2c(N)ncnc2n1C1OC2COP(=O)(O)OC2C1OC (centres unmarked) [Compound I-117, 8-ethylthio-2′-O-methyladenosine-3′,5′-cyclic monophosphate] | 1.8 | + | – | –
34 | Nc1ncnc2c1nc(Br)n2[C@H]1C[C@@H]2O[P@@](=O)(S)OC[C@H]2O1 [Compound I-136, 8-bromo-2′-deoxyadenosine-3′,5′-cyclic monophosphorothioate, Sp-isomer] | – | + | – | –
